test system: HeLa Cells (ATCC CCL-2); assay: Determination of IC50 for HeLa cells, proliferation by 14C-thymidine incorporation; type: cell-based; conditions: Homo sapiens, total treatment 96 h
Description: Determination of IC50 for HeLa Cells (ATCC CCL-2)
This test is carried out using adherent tumour cell lines. Their proliferation is measured via the amount of ^14C-thymidine incorporated within the cells. These cells are placed in 96-well Cytostar plates with the culture medium and are incubated for 4 h at 37° C.-5% CO2. The products under test are then added and the plates are replaced in the incubator. ^14C-thymidine is added to the medium after 72 h of treatment and the cells are then incubated for 24 h. The incorporation of ^14C-thymidine is measured using a MicroBeta reader (Perkin Elmer) after these 24 h of “pulse”. The total time of treatment of the cells with the product under test is 96 h.
For each assay, the plates are prepared at the cell concentrations employed. The products are tested at 10 concentrations in duplicate. The first concentration is usually 10 μM, but it may vary, as may the degree of dilution, depending on the activity level of the products. The serial dilutions are made in pure DMSO and then each concentration is diluted in the culture medium. All of the products are tested in two independent assays.
• Dulbecco (Gibco 11960-044) • Inactivated foetal calf serum (FCS) (Gibco 10500-056) • Penicillin-Streptomycin-Glutamine (PSG) (Gibco 10378-016) • 96-well Cytostar plate (Amersham RPNQ0162) • DMSO (Sigma D2650) • ^14C-Thymidine (NEN NEC-568)

`CCS(=O)(=O)N1CCC(Nc2n[nH]c3c2nc(-c2c(F)cccc2F)c2cc(C#N)ccc23)CC1` [Example 13, 5-(2,6-difluorophenyl)-3-([1-(ethylsulphonyl)piperidin-4-yl]amino}-1H-pyrazolo[4,3-c]isoquinoline-7-carbonitrile] and `CS(=O)(=O)N1CCC(Nc2n[nH]c3c2nc(-c2c(F)cccc2F)c2cc(C#N)ccc23)CC1` [Example 12, 5-(2,6-difluorophenyl)-3-{[1-(methylsulphonyl)piperidin-4-yl]amino}-1H-pyrazolo[4,3-c]isoquinoline-7-carbonitrile] are within 1.5-fold of each other in IC50: 954 nM for the first, 899 nM for the second.

Going from `NC(=O)c1ccc2c(c1)c(-c1c(F)cccc1F)nc1c(NC3CCN(S(=O)(=O)C4CC4)CC3)n[nH]c12` [Example 14, 5-(2,6-difluorophenyl)-3-{[1-(cyclopropylsulphonyl)piperidin-4-yl]amino}-1H-pyrazolo[4,3-c]isoquinoline-7-carboxamide] to `CS(=O)(=O)N1CCC(Nc2n[nH]c3c2nc(-c2c(F)cccc2F)c2cc(C(N)=O)ccc23)CC1` [Example 1, 5-(2,6-difluorophenyl)-3-{[1-(methylsulphonyl)piperidin-4-yl]amino}-1H-pyrazolo[4,3-c]isoquinoline-7-carboxamide], the IC50 falls from 413 nM to 259 nM (1.6-fold). The second is the more potent here.

`CCS(=O)(=O)N1CCC(Nc2n[nH]c3c2nc(-c2c(F)cccc2F)c2cc(C(N)=O)ccc23)CC1` [Example 18, 5-(2,6-difluorophenyl)-3-{[1-(ethylsulphonyl)piperidin-4-yl]amino}-1H-pyrazolo[4,3-c]isoquinolin-7-carboxamide] and `CCS(=O)(=O)N1CCC(Nc2n[nH]c3c2nc(-c2c(F)cccc2F)c2cc(C=O)ccc23)CC1` [Example 19, 5-(2,6-difluorophenyl)-3-{[1-(ethylsulphonyl)piperidin-4-yl]amino}-1H-pyrazolo[4,3-c]isoquinoline-7-carbaldehyde] are within 1.5-fold of each other in IC50: 554 nM for the first, 451 nM for the second.

Compared with `CS(=O)(=O)N1CCC(Nc2n[nH]c3c2nc(-c2c(F)cccc2F)c2cc(F)ccc23)CC1` [Example 6, 5-(2,6-difluorophenyl)-7-fluoro-3-{[1-(methylsulphonyl)piperidin-4-yl]amino}-1H-pyrazolo[4,3-c]isoquinoline], `NS(=O)(=O)N1CCC(Nc2n[nH]c3c2nc(-c2c(F)cccc2F)c2cc(F)ccc23)CC1` [Example 28, 4-{[5-(2,6-difluorophenyl)-7-fluoro-1H-pyrazolo[4,3-c]isoquinolin-3-yl]amino}piperidine-1-sulphonamide] is 3.9-fold lower in IC50: 890 nM for the first, 230 nM for the second.

`CCS(=O)(=O)N1CCC(Nc2n[nH]c3c2nc(-c2c(F)cccc2F)c2cc(C=NO)ccc23)CC1` [Example 20, 5-(2,6-difluorophenyl)-3-{[1-(ethylsulphonyl)piperidin-4-yl]amino}-1H-pyrazolo[4,3-c]isoquinoline-7-carbaldehyde oxime] and `CS(=O)(=O)N1CCC(Nc2n[nH]c3c2nc(-c2c(F)cccc2F)c2cc(C=NO)ccc23)CC1` [Example 2, 5-(2,6-difluorophenyl)-3-{[1-(methylsulphonyl)piperidin-4-yl]amino}-1H-pyrazolo[4,3-c]isoquinoline-7-carbaldehyde oxime] are within 1.5-fold of each other in IC50: 138 nM for the first, 100 nM for the second.

Going from `CS(=O)(=O)N1CCC(Nc2n[nH]c3c2nc(-c2c(F)cccc2F)c2cc(C(N)=S)ccc23)CC1` [Example 9, 5-(2,6-difluorophenyl)-3-{[1-(methylsulphonyl)piperidin-4-yl]amino}-1H-pyrazolo[4,3-c]isoquinoline-7-carbothioamide] to `CS(=O)(=O)N1CCC(Nc2n[nH]c3c2nc(-c2c(F)cccc2F)c2cc(C(=N)NO)ccc23)CC1` [Example 16, 5-(2,6-difluorophenyl)-N-hydroxy-3-{[1-(methylsulphonyl)piperidin-4-yl]amino}-1H-pyrazolo[4,3-c]isoquinoline-7-carboximidamide], the IC50 rises from 597 nM to 2350 nM (3.9-fold).

Compared with `N#Cc1ccc2c(c1)c(-c1c(F)cccc1F)nc1c(NC3CCN(S(N)(=O)=O)CC3)n[nH]c12` [Example 26, 4-{[7-cyano-5-(2,6-difluorophenyl)-1H-pyrazolo[4,3-c]isoquinolin-3-yl]amino}piperidine-1-sulphonamide], `N#Cc1ccc2c(c1)c(-c1c(F)cccc1F)nc1c(NC3CCN(S(=O)(=O)C4CC4)CC3)n[nH]c12` [Example 11, 5-(2,6-difluorophenyl)-3-{[1-(cyclopropylsulphonyl)piperidin-4-yl]amino}-1H-pyrazolo[4,3-c]isoquinoline-7-carbonitrile] is 1.8-fold lower in IC50: 1660 nM for the first, 909 nM for the second. The second is the more potent here.

Compared with `C#Cc1ccc2c(c1)c(-c1c(F)cccc1F)nc1c(NC3CCN(S(C)(=O)=O)CC3)n[nH]c12` [Example 7, 5-(2,6-difluorophenyl)-3-{[1-(methylsulphonyl)piperidin-4-yl]amino}-7-ethynyl-1H-pyrazolo[4,3-c]isoquinoline], `CS(=O)(=O)N1CCC(Nc2n[nH]c3c2nc(-c2c(F)cccc2F)c2cc(C=O)ccc23)CC1` [Example 15, 5-(2,6-difluorophenyl)-3-{[1-(methylsulphonyl)piperidin-4-yl]amino}-1H-pyrazolo[4,3-c]isoquinoline-7-carbaldehyde] is 3.1-fold lower in IC50: 1500 nM for the first, 488 nM for the second.

First: NS(=O)(=O)N1CCC(Nc2n[nH]c3c2nc(-c2c(F)cccc2F)c2cc(CO)ccc23)CC1 [Example 27, 4-{[5-(2,6-difluorophenyl)-7-(hydroxymethyl)-1H-pyrazolo[4,3-c]isoquinolin-3-yl]amino}piperidine-1-sulphonamide]
Second: C=Cc1ccc2c(c1)c(-c1c(F)cccc1F)nc1c(NC3CCN(S(C)(=O)=O)CC3)n[nH]c12 [Example 5, 5-(2,6-difluorophenyl)-3-{[1-(methylsulphonyl)piperidin-4-yl]amino}-7-vinyl-1H-pyrazolo[4,3-c]isoquinoline]
The IC50 of the first is 5.7-fold lower: 456 nM for the first, 2580 nM for the second.

Going from `NC(=O)c1ccc2c(c1)c(-c1c(F)cccc1F)nc1c(NC3CCN(S(=O)(=O)C(F)(F)F)CC3)n[nH]c12` [Example 4, 5-(2,6-difluorophenyl)-3-{[1-(trifluoromethanesulphonyl)piperidin-4-yl]amino}-1H-pyrazolo[4,3-c]isoquinoline-7-carboxamide] to `COC(=O)c1ccc2c(c1)c(-c1c(F)cccc1F)nc1c(NC3CCN(S(C)(=O)=O)CC3)n[nH]c12` [Example 8, Methyl 5-(2,6-difluorophenyl)-3-{[1-(methylsulphonyl)piperidin-4-yl]amino}-1H-pyrazolo[4,3-c]isoquinoline-7-carboxylate], the IC50 rises from 789 nM to 7280 nM (9.2-fold). The first is the more potent here.

`CS(=O)(=O)N1CCC(Nc2n[nH]c3c2nc(-c2c(F)cccc2F)c2cc(-c4cn[nH]c4)ccc23)CC1` [Example 24, 5-(2,6-difluorophenyl)-N-[1-(methylsulphonyl)piperidin-4-yl]-7-(1H-pyrazol-4-yl)-1H-pyrazolo[4,3-c]isoquinolin-3-amine] and `CS(=O)(=O)N1CCC(Nc2n[nH]c3c2nc(-c2c(F)cccc2F)c2cc(-c4cn[nH]n4)ccc23)CC1` [Example 25, 5-(2,6-difluorophenyl)-N-[1-(methylsulphonyl)piperidin-4-yl]-7-(2H-1,2,3-triazol-4-yl)-1H-pyrazolo[4,3-c]isoquinolin-3-amine] are within 1.5-fold of each other in IC50: 2120 nM for the first, 2280 nM for the second.

In the case of `NC(=O)c1ccc2c(c1)c(-c1c(F)cccc1F)nc1c(NC3CCN(S(N)(=O)=O)CC3)[nH]nc12` [Example 22, 5-(2,6-difluorophenyl)-3-[(1-sulphamoylpiperidin-4-yl)amino]-2H-pyrazolo[4,3-c]isoquinoline-7-carboxamide], the IC50 is reported as 411 nM.

same assay, conditions: total treatment 96 h

`CS(=O)(=O)N1CCC(Nc2n[nH]c3c2nc(-c2c(F)cccc2F)c2cc(CO)ccc23)CC1` [Example 3] and `CS(=O)(=O)N1CCC(Nc2n[nH]c3c2nc(-c2c(F)cccc2F)c2cc(CF)ccc23)CC1` [Example 17] are within 1.5-fold of each other in IC50: 248 nM for the first, 263 nM for the second.

First: CCS(=O)(=O)N1CCC(Nc2n[nH]c3c2nc(-c2c(F)cccc2F)c2cc(CO)ccc23)CC1 [Example 21]
Second: NS(=O)(=O)N1CCC(Nc2n[nH]c3c2nc(-c2c(F)cccc2F)c2cc(C=NO)ccc23)CC1 (mixture of isomers) [Example 23, 4-({5-(2,6-difluorophenyl)-7-[(E/Z)-(hydroxyimino)methyl]-1H-pyrazolo[4,3-c]isoquinolin-3-yl}amino)piperidine-1-sulphonamide]
The IC50 of the first is 2.7-fold higher: 338 nM for the first, 126 nM for the second. The second is the more potent here.

Compound `CS(=O)(=O)N1CCC(Nc2n[nH]c3c2nc(-c2c(F)cccc2F)c2ccccc23)CC1` [Example 10] has an IC50 of 2040 nM.

From US8461175B2, “1-pyrazolo[4,3-c]isoquinoline derivatives, preparation thereof and therapeutic use thereof” (Sanofi-Aventis, priority 2009, dated 2013)
